Test results: the CheMixHub viscosity set

Test: xn = mol fraction of the nth substance listed

C1COCO1 + CC(=O)O
298.15 K, 101 kPa
Conditions	viscosity [mPa·s]
x1 = 0.0826	1.097
x1 = 0.1685	1.076
x1 = 0.2578	1.042
x1 = 0.3508	0.996
x1 = 0.4477	0.9442
x1 = 0.5487	0.883
x1 = 0.6541	0.8162
x1 = 0.7643	0.7415
x1 = 0.8795	0.6626

CC(=O)c1ccccc1 + CC(=O)O
298.15 K, 101 kPa
Conditions	viscosity [mPa·s]
x2 = 0.0998	1.741
x2 = 0.2107	1.754
x2 = 0.2935	1.742
x2 = 0.4253	1.703
x2 = 0.4885	1.668
x2 = 0.6003	1.598
x2 = 0.6998	1.524
x2 = 0.8002	1.42
x2 = 0.9013	1.293

ClC(Cl)C(Cl)(Cl)Cl + CC(=O)c1ccccc1
298.15 K, 101 kPa
Conditions	viscosity [mPa·s]
x2 = 0.1163	2.34
x2 = 0.3295	2.36
x2 = 0.5338	2.26
x2 = 0.7313	2.03
x2 = 0.8974	1.8

C1COCO1 + CC(C)(C)O
303.15 K, 101 kPa
Conditions	viscosity [mPa·s]
x1 = 0.1001	1.967
x1 = 0.2001	1.468
x1 = 0.3001	1.102
x1 = 0.4001	0.8793
x1 = 0.5001	0.7657
x1 = 0.6001	0.6755
x1 = 0.7001	0.6067
x1 = 0.8001	0.5731
x1 = 0.9001	0.566

CC(=O)c1ccccc1 + CC(C)(C)O
viscosity [mPa·s], 101 kPa
Conditions	x2 = 0.1188	x2 = 0.2314	x2 = 0.3395	x2 = 0.4286	x2 = 0.545	x2 = 0.6429	x2 = 0.7373	x2 = 0.8283	x2 = 0.9142
298.15 K	2.081	2.456	2.8	3.08	3.42	3.651	3.856	4.034	4.208
303.15 K	1.794	2.055	2.284	2.473	2.712	2.874	3.004	3.127	3.247
308.15 K	1.573	1.743	1.895	2.023	2.185	2.29	2.378	2.468	2.549

CN(C)P(=O)(N(C)C)N(C)C + CC(C)(C)O
303.15 K, 101.3 kPa
Conditions	viscosity [mPa·s]
x1 = 0.0784	3.704
x1 = 0.103	3.722
x1 = 0.1988	3.624
x1 = 0.2201	3.547
x1 = 0.3076	3.4
x1 = 0.4051	3.263
x1 = 0.4476	3.23
x1 = 0.5093	3.185
x1 = 0.6062	3.118
x1 = 0.7077	3.068
x1 = 0.8008	3.02
x1 = 0.9029	2.973

C=CCN(CC=C)C(=O)C(Cl)Cl + CC(C)=O
viscosity [mPa·s], 101 kPa
Conditions	x1 = 0.006314	x1 = 0.01189	x1 = 0.01711	x1 = 0.02832	x1 = 0.03651	x1 = 0.04464	x1 = 0.05006	x1 = 0.05495
293.15 K	0.3429	0.3501	0.3617	0.3719	0.3878	0.3997	0.4079	0.4157
298.15 K	0.3335	0.3358	0.3476	0.3589	0.3712	0.3822	0.3905	0.3989
303.15 K	0.3189	0.3227	0.3309	0.3424	0.3542	0.3646	0.3722	0.3793
308.15 K	0.3041	0.3086	0.3185	0.3268	0.3372	0.3478	0.3553	0.3628
313.15 K	0.2944	0.296	0.3075	0.3129	0.3247	0.3335	0.3423	0.3443

ClC(Cl)C(Cl)(Cl)Cl + CC(C)=O
298.15 K, 101 kPa
Conditions	viscosity [mPa·s]
x2 = 0.1476	1.93
x2 = 0.3178	1.52
x2 = 0.5103	1.12
x2 = 0.7037	0.695
x2 = 0.9068	0.417

CCCCCCCCC + CC(C)CC(C)(C)C
298.15 K, 101 kPa
Conditions	viscosity [mPa·s]
x2 = 0.07718	0.6409
x2 = 0.2128	0.6118
x2 = 0.3294	0.5969
x2 = 0.4097	0.5806
x2 = 0.5252	0.5564
x2 = 0.6958	0.5351
x2 = 0.7143	0.5219
x2 = 0.8186	0.5071
x2 = 0.8823	0.4985
x2 = 0.9211	0.4877
x2 = 0.9661	0.4829

C1COCO1 + CC(C)O
303.15 K, 101 kPa
Conditions	viscosity [mPa·s]
x1 = 0.08269	1.212
x1 = 0.1686	0.9776
x1 = 0.258	0.8386
x1 = 0.351	0.7477
x1 = 0.4479	0.6645
x1 = 0.5489	0.6082
x1 = 0.6543	0.6033
x1 = 0.7644	0.5856
x1 = 0.8795	0.5637

CC(C)OC(C)C + CC(C)O
viscosity [mPa·s], 100 kPa
Conditions	x1 = 0.0797	x1 = 0.1607	x1 = 0.2387	x1 = 0.3497	x1 = 0.4359	x1 = 0.5553	x1 = 0.6498	x1 = 0.7351	x1 = 0.848	x1 = 0.9369
293.15 K	1.78	1.32	1.02	0.755	0.635	0.52	0.458	0.418	0.38	0.35
298.15 K	1.55	1.18	0.92	0.68	0.572	0.48	0.43	0.395	0.36	0.332
303.15 K	1.39	1.05	0.84	0.63	0.53	0.45	0.404	0.375	0.344	0.318
308.15 K	1.21	0.94	0.75	0.56	0.48	0.417	0.379	0.356	0.328	0.305
313.15 K	1.05	0.83	0.67	0.51	0.44	0.383	0.356	0.334	0.311	0.29
318.15 K	0.93	0.74	0.6	0.465	0.4	0.354	0.331	0.313	0.293	0.276
323.15 K	0.82	0.647	0.522	0.41	0.361	0.327	0.309	0.295	0.276	0.26

CN(C)P(=O)(N(C)C)N(C)C + CC(C)O
303.15 K, 101.3 kPa
Conditions	viscosity [mPa·s]
x1 = 0.0867	1.855
x1 = 0.1008	1.87
x1 = 0.1839	1.937
x1 = 0.2608	1.991
x1 = 0.3481	2.075
x1 = 0.4017	2.136
x1 = 0.5056	2.279
x1 = 0.6052	2.407
x1 = 0.705	2.547
x1 = 0.7928	2.668
x1 = 0.8899	2.791

[Al+3].[Cl-].[Cl-].[Cl-] + CC(N)=O
viscosity [mPa·s], 101 kPa
Conditions	x1 = 0.5	x1 = 0.52	x1 = 0.57	x1 = 0.6
313 K	59.32	47.47	44.48	40.23
323 K	41.01	32.24	30.87	28.7

C1COCO1 + CCC(C)O
viscosity [mPa·s]
Conditions	298.15 K	303.15 K	313.15 K
101 kPa, x1 = 0.1001	–	1.516	–
101 kPa, x1 = 0.2001	–	1.181	–
101 kPa, x1 = 0.3001	–	0.9354	–
101 kPa, x1 = 0.4001	–	0.812	–
101 kPa, x1 = 0.5001	–	0.7072	–
101 kPa, x1 = 0.6001	–	0.6589	–
101 kPa, x1 = 0.7001	–	0.612	–
101 kPa, x1 = 0.8001	–	0.5894	–
101 kPa, x1 = 0.9001	–	0.5588	–
101.33 kPa, x1 = 0.0987	1.997	–	1.29
101.33 kPa, x1 = 0.1966	1.454	–	1.016
101.33 kPa, x1 = 0.2957	1.149	–	0.8449
101.33 kPa, x1 = 0.3994	0.9497	–	0.7262
101.33 kPa, x1 = 0.5008	0.8242	–	0.6486
101.33 kPa, x1 = 0.6023	0.7412	–	0.593
101.33 kPa, x1 = 0.699	0.6698	–	0.55
101.33 kPa, x1 = 0.8014	0.6265	–	0.5218
101.33 kPa, x1 = 0.9023	0.5997	–	0.5052

CC(C)OC(C)C + CCC(C)O
viscosity [mPa·s], 100 kPa
Conditions	x1 = 0.0813	x1 = 0.1604	x1 = 0.2406	x1 = 0.341	x1 = 0.447	x1 = 0.5582	x1 = 0.6505	x1 = 0.7374	x1 = 0.8465	x1 = 0.9346
293.15 K	3	2.51	2.1	1.653	1.304	0.976	0.772	0.623	0.473	0.384
298.15 K	2.51	2.09	1.75	1.395	1.122	0.846	0.678	0.56	0.44	0.365
303.15 K	2.11	1.742	1.453	1.16	0.95	0.75	0.619	0.522	0.414	0.344
308.15 K	1.76	1.48	1.241	1.004	0.834	0.67	0.558	0.473	0.388	0.325
313.15 K	1.49	1.25	1.06	0.87	0.73	0.596	0.51	0.44	0.361	0.307
318.15 K	1.28	1.074	0.92	0.769	0.65	0.535	0.46	0.4	0.333	0.29
323.15 K	1.1	0.931	0.801	0.67	0.575	0.48	0.416	0.367	0.31	0.27

CC(=O)c1ccccc1 + CCCC(C)O
298.15 K, 101 kPa
Conditions	viscosity [mPa·s]
x1 = 0.2502	1.875
x1 = 0.7547	1.605

[Al+3].[Cl-].[Cl-].[Cl-] + CCCC(N)=O
viscosity [mPa·s], 101 kPa
Conditions	x1 = 0.5	x1 = 0.52	x1 = 0.57	x1 = 0.6	x1 = 0.63
313 K	28.41	23.88	23.18	24.75	27.31
323 K	20.42	17.69	17.62	17.72	19.85

CCCCCCCCC + CCCCCC
298.15 K, 101.33 kPa
Conditions	viscosity [mPa·s]
x2 = 0.1073	0.6111
x2 = 0.21	0.5693
x2 = 0.2873	0.5367
x2 = 0.4024	0.5017
x2 = 0.5044	0.4527
x2 = 0.6074	0.42
x2 = 0.7035	0.3874
x2 = 0.804	0.3547
x2 = 0.9035	0.3272

CCC(O)CC + CCCCCCC
101 kPa
Conditions	viscosity [mPa·s]
293.4 K, x1 = 0.201	0.531
294 K, x1 = 0.026	0.466
294.1 K, x1 = 0.101	0.489
295.1 K, x1 = 0.5	0.734
